Each block holds one molecule with its values, some of them ahead of it. Active and inactive are the calls of the source. The rule behind the calls is not given here. Residues, ends and D or L forms follow the SMILES beside them.
Experiments:
[1] = molecular target: T1, Peroxisome proliferator-activated receptor alpha (Rattus norvegicus) (UniProt P37230); assay: Agonist activity at PPARalpha in lipid loaded rat HII4E cells assessed as induction of fatty acid uptake at 1 uM after 24 hrs by flow cytometry analysis relative to control; type: cell-based
T1 sequence (whole entry): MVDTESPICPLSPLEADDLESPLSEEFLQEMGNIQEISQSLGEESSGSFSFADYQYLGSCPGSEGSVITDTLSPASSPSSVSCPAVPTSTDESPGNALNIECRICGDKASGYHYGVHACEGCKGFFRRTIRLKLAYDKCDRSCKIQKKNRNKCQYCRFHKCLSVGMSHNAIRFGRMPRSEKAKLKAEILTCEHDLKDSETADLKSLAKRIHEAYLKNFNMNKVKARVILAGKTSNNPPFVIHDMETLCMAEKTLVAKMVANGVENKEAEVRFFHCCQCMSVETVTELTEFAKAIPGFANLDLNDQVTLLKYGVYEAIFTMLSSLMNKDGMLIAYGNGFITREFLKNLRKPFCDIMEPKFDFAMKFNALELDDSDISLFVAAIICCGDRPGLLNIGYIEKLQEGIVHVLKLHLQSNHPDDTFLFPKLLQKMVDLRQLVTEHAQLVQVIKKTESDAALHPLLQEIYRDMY

[2] = molecular target: T2, Peroxisome proliferator-activated receptor alpha (Homo sapiens) (UniProt Q07869); assay: Agonist activity at PPARalpha (unknown origin) expressed in CHOK1 cells assessed as induction of transactivation activity at 100 uM after 24 hrs by luciferase reporter gene assay relative to control; type: cell-based; settings: CHO-K1
T2 sequence (whole entry): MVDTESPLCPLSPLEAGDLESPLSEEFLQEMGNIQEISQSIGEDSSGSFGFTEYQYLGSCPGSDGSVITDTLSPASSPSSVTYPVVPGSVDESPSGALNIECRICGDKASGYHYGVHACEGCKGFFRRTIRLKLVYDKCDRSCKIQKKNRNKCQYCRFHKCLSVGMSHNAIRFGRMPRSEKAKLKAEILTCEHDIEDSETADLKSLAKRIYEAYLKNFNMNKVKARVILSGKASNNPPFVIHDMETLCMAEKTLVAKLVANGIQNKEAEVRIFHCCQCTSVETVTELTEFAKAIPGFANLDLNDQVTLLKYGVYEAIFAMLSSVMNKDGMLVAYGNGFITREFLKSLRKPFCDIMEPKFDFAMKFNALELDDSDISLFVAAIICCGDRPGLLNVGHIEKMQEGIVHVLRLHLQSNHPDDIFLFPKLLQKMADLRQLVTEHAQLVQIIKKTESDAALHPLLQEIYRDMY

[3] = Reduction of intracellular cholesterol level in lipid loaded rat HII4E cells expressing PPARgamma siRNA after 24 hrs; type: functional, cell-based
[4] = molecular target: T1, Peroxisome proliferator-activated receptor alpha (Rattus norvegicus); assay: Agonist activity at PPARalpha in lipid loaded rat HII4E cells assessed as reduction of intracellular triglyceride level at 100 uM after 24 hrs relative to control; type: cell-based; design: scale not given: the % may be the effect or the level left
[5] = molecular target: T3, Peroxisome proliferator-activated receptor alpha (Homo sapiens, UniProt Q07869); assay: Binding affinity to PPARalpha LBD (unknown origin) by surface plasmon resonance assay
T3 sequence (Q07869 whole entry): T2 sequence (whole entry)

[6] = molecular target: T1, Peroxisome proliferator-activated receptor alpha (Rattus norvegicus); assay: Agonist activity at PPARalpha in lipid loaded rat HII4E cells assessed as increase of CPT1 gene expression at 500 uM after 24 hrs by qPCR analysis relative to control; type: cell-based
[7] = molecular target: T1, Peroxisome proliferator-activated receptor alpha (Rattus norvegicus); assay: Agonist activity at PPARalpha in lipid loaded rat HII4E cells assessed as increase of FATP4 gene expression at 100 uM after 24 hrs by qPCR analysis relative to control; type: cell-based
[8] = molecular target: T1, Peroxisome proliferator-activated receptor alpha (Rattus norvegicus); assay: Agonist activity at PPARalpha in lipid loaded rat HII4E cells assessed as reduction of intracellular cholesterol level at 500 uM after 24 hrs relative to control; type: cell-based; design: scale not given: the % may be the effect or the level left
[9] = molecular target: T1, Peroxisome proliferator-activated receptor alpha (Rattus norvegicus); assay: Agonist activity at PPARalpha in lipid loaded rat HII4E cells assessed as increase of acyl-CoA synthetase gene expression at 100 uM after 24 hrs by qPCR analysis relative to control; type: cell-based
[10] = molecular target: T1, Peroxisome proliferator-activated receptor alpha (Rattus norvegicus); assay: Agonist activity at PPARalpha in lipid loaded rat HII4E cells assessed as increase of acyl-CoA synthetase gene expression at 500 uM after 24 hrs by qPCR analysis relative to control; type: cell-based
[11] = molecular target: T1, Peroxisome proliferator-activated receptor alpha (Rattus norvegicus); assay: Agonist activity at PPARalpha in lipid loaded rat HII4E cells assessed as increase of FATP4 gene expression at 500 uM after 24 hrs by qPCR analysis relative to control; type: cell-based
[12] = Reduction of intracellular cholesterol level in lipid loaded rat HII4E cells expressing PPARalpha siRNA at 10 to 500 uM after 24 hrs; type: functional, cell-based
[13] = molecular target: T1, Peroxisome proliferator-activated receptor alpha (Rattus norvegicus); assay: Agonist activity at PPARalpha in lipid loaded rat HII4E cells assessed as reduction of intracellular cholesterol level after 24 hrs; type: cell-based
[14] = molecular target: T1, Peroxisome proliferator-activated receptor alpha (Rattus norvegicus); assay: Agonist activity at PPARalpha in lipid loaded rat HII4E cells assessed as reduction of intracellular cholesterol level at 100 uM after 24 hrs relative to control; type: cell-based; design: scale not given: the % may be the effect or the level left
[15] = Reduction of intracellular triglyceride level in lipid loaded rat HII4E cells expressing PPARalpha siRNA at 10 to 500 uM after 24 hrs; type: functional, cell-based
[16] = molecular target: T2, Peroxisome proliferator-activated receptor alpha (Homo sapiens); assay: Agonist activity at PPARalpha (unknown origin) expressed in CHOK1 cells assessed as induction of transactivation activity at 500 uM after 24 hrs by luciferase reporter gene assay relative to control; type: cell-based; settings: CHO-K1
[17] = molecular target: T1, Peroxisome proliferator-activated receptor alpha (Rattus norvegicus); assay: Agonist activity at PPARalpha in lipid loaded rat HII4E cells assessed as induction of fatty acid uptake at 100 to 500 uM after 24 hrs by flow cytometry analysis relative to control; type: cell-based
[18] = Reduction of intracellular triglyceride level in lipid loaded rat HII4E cells expressing PPARgamma siRNA after 24 hrs; type: functional, cell-based
[19] = molecular target: T1, Peroxisome proliferator-activated receptor alpha (Rattus norvegicus); assay: Agonist activity at PPARalpha in lipid loaded rat HII4E cells assessed as induction of transcriptional activity at 500 uM after 24 hrs by qPCR analysis relative to control; type: cell-based
[20] = molecular target: T1, Peroxisome proliferator-activated receptor alpha (Rattus norvegicus); assay: Agonist activity at PPARalpha in lipid loaded rat HII4E cells assessed as reduction of intracellular triglyceride level at 500 uM after 24 hrs relative to control; type: cell-based; design: scale not given: the % may be the effect or the level left
[21] = molecular target: T1, Peroxisome proliferator-activated receptor alpha (Rattus norvegicus); assay: Agonist activity at PPARalpha in lipid loaded rat HII4E cells assessed as increase of ACOX gene expression at 500 uM after 24 hrs by qPCR analysis relative to control; type: cell-based
[22] = molecular target: T1, Peroxisome proliferator-activated receptor alpha (Rattus norvegicus); assay: Agonist activity at PPARalpha in lipid loaded rat HII4E cells assessed as induction of transcriptional activity at 100 uM after 24 hrs by qPCR analysis relative to control; type: cell-based
[23] = molecular target: T3, Peroxisome proliferator-activated receptor alpha; assay: Agonist activity at PPARalpha LBD (unknown origin) assessed as induction of PGC1alpha co-activator activity by TR-FRET analysis

Activity [1]: Active
Compound: CC(C)(Sc1ccc(CCN(CCCCC2CCCCC2)C(=O)NC2CCCCC2)cc1)C(=O)O

Activity [2]: 53% | Activity [4]: 14% | Kd [5]: 120 µM | fold change (FC) [6]: 1.6 | fold change (FC) [7]: 1.6 | Activity [8]: 21% | fold change (FC) [9]: 1.4 | fold change (FC) [10]: 1.5 | fold change (FC) [11]: 1.7 | Activity [13]: Dose-dependent effect | Activity [14]: 14% | Activity [16]: 62% | fold change (FC) [17]: 1.2 | fold change (FC) [19]: 1.9 | Activity [20]: 16% | fold change (FC) [21]: 1.4 | fold change (FC) [22]: 1.8 | EC50 [23]: 83.4 µM
Compound: N[C@@H](Cc1c[nH]c2ccccc12)C(=O)N[C@@H](CCC(=O)O)C(=O)O (H-Trp-Glu-OH)
Activity [3]: Dose-dependent effect | Activity [12]: inactive | Activity [15]: inactive | Activity [18]: Dose-dependent effect

From ChEMBL document CHEMBL3286349 (Bioorg Med Chem Lett, 2014)
